Columns and labels:
[1] = molecular target: Dual specificity testis-specific protein kinase 1 (Homo sapiens) (UniProt Q15569); test: Selectivity interaction (KinomeScan (DiscoverX)) EUB0001049a TESK1; conditions: at 1 µM
[2] = molecular target: T1, Serine/threonine-protein kinase D3 (Homo sapiens) (UniProt O94806); test: Selectivity interaction (ActivX KiNativ screen (kinase selectivity in THP-1 cell lysates)) EUB0000639a PRKD3; assay type: subcellular; conditions: lysate, at 0.2 µM
T1 sequence (whole entry): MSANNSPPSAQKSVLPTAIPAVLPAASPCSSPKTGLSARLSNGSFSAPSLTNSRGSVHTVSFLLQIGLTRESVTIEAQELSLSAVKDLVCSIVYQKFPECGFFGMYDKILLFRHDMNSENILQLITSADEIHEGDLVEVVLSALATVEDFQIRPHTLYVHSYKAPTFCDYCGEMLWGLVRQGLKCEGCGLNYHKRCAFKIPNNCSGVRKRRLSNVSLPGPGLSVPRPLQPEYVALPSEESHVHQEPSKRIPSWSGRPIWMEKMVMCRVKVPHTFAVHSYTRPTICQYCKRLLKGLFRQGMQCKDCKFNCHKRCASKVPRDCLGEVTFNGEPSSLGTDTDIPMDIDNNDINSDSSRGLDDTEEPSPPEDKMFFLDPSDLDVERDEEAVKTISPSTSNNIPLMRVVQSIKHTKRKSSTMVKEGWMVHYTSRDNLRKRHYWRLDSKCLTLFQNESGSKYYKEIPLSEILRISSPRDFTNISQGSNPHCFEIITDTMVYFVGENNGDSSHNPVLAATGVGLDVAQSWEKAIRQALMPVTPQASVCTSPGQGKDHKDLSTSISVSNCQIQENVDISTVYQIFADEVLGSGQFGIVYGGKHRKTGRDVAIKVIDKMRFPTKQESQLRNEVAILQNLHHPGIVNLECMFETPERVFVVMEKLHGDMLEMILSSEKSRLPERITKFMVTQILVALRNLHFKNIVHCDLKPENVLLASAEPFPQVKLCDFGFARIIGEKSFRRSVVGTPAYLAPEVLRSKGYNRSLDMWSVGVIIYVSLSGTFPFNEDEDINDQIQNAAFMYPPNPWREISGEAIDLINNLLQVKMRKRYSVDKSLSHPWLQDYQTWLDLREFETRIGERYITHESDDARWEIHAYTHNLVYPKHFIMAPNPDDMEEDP

[3] = molecular target: Tyrosine-protein kinase receptor Tie-1 (Homo sapiens) (UniProt P35590); conditions: at 10 µM
Chain of Tyrosine-protein kinase receptor Tie-1 (Homo sapiens) (P35590 whole entry): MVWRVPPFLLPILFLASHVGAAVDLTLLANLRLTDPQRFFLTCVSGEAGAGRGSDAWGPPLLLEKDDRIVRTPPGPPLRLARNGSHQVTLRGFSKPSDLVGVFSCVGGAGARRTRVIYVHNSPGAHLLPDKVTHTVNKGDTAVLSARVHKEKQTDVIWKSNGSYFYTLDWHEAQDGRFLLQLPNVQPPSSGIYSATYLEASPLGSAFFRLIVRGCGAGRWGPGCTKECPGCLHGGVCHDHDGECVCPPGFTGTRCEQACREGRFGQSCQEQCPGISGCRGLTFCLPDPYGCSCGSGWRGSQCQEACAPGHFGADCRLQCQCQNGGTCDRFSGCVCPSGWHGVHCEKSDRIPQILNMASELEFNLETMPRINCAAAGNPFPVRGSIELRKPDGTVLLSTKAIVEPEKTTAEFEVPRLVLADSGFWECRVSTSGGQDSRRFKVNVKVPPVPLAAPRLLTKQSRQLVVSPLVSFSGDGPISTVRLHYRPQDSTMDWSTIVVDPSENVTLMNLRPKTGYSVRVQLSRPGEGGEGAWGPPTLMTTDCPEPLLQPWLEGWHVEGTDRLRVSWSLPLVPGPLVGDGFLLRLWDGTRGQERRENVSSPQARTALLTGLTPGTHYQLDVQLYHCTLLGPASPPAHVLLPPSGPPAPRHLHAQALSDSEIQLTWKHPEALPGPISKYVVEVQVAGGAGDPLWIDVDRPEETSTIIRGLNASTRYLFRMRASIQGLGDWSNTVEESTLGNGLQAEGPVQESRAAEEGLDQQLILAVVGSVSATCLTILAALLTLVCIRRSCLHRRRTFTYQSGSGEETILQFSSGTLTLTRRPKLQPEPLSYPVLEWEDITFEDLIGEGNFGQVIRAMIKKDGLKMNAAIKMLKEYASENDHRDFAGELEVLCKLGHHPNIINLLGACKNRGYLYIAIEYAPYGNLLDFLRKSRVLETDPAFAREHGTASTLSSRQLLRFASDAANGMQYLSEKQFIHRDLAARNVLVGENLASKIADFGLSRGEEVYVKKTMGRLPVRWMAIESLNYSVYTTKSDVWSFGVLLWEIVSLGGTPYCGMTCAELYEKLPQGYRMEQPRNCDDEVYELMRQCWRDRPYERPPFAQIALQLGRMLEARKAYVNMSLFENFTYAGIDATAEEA

[4] = molecular target: Serine/threonine-protein kinase tousled-like 2 (Homo sapiens) (UniProt Q86UE8); conditions: at 10 µM
Chain of Serine/threonine-protein kinase tousled-like 2 (Homo sapiens) (Q86UE8 whole entry, looked up): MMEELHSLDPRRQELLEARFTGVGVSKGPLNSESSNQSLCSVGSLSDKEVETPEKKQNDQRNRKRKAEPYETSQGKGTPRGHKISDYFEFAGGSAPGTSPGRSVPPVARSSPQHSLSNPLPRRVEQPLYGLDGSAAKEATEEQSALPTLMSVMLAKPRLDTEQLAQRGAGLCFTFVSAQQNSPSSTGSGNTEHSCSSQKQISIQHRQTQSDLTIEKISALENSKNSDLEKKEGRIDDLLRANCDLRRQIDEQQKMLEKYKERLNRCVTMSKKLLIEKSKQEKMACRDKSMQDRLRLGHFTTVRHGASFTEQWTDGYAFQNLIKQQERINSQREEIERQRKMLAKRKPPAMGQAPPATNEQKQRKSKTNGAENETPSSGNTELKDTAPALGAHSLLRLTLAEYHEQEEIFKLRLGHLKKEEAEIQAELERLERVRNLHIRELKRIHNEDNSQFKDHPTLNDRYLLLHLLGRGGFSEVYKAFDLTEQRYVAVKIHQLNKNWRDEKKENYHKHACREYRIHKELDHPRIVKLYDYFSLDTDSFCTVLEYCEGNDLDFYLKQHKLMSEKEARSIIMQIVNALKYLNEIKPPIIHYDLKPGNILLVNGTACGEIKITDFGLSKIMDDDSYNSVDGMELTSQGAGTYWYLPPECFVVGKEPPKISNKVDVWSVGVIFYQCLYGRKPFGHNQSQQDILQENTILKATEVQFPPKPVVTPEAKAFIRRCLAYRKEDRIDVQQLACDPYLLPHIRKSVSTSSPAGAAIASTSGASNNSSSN

[5] = molecular target: Proto-oncogene tyrosine-protein kinase receptor Ret (Homo sapiens, UniProt P07949); test: (§1) Selectivity interaction (KinomeScan (DiscoverX)) EUB0000655a RET; conditions: at 10 µM
Chain of Proto-oncogene tyrosine-protein kinase receptor Ret (P07949 whole entry): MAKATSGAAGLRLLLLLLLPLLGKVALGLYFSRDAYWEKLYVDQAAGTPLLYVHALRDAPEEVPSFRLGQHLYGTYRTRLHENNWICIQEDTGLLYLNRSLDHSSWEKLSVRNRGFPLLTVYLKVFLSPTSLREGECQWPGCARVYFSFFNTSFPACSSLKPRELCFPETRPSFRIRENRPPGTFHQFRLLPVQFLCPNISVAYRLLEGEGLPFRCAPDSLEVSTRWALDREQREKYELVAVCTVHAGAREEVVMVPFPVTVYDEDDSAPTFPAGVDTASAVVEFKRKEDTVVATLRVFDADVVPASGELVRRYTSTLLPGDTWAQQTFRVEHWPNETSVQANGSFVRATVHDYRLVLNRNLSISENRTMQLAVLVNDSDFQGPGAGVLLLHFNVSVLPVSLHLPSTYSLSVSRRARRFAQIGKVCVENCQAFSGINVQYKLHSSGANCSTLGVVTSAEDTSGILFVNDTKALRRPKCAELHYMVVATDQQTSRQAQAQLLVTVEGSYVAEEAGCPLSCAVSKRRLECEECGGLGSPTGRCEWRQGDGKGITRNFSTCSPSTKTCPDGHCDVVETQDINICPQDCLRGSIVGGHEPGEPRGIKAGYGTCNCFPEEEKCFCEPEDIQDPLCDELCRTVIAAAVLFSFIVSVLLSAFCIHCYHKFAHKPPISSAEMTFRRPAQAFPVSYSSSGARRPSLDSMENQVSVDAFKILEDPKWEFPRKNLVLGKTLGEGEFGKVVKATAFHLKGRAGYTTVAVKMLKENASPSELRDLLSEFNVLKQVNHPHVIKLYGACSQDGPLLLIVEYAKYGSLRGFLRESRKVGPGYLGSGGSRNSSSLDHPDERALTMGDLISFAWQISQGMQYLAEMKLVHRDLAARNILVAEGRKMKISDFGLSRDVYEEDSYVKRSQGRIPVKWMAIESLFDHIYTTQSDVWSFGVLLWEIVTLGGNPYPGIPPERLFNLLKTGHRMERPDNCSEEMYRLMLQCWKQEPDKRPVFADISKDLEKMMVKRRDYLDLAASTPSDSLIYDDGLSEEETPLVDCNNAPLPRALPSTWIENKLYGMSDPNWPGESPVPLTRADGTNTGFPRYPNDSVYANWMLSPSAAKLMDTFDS

[6] = test system: Proto-oncogene tyrosine-protein kinase receptor Ret (Homo sapiens), P07949 [V804L]; test: as §1; conditions: at 10 µM
Chain of Proto-oncogene tyrosine-protein kinase receptor Ret (Homo sapiens), P07949 [V804L] (P07949 whole entry V804L): as the sequence (P07949 whole entry) above, with V804L counted along it

[7] = test system: Proto-oncogene tyrosine-protein kinase receptor Ret (Homo sapiens), P07949 [M918T]; test: as §1; conditions: at 10 µM
Chain of Proto-oncogene tyrosine-protein kinase receptor Ret (Homo sapiens), P07949 [M918T] (P07949 whole entry M918T): as the sequence (P07949 whole entry) above, with M918T counted along it

[8] = test system: Proto-oncogene tyrosine-protein kinase receptor Ret (Homo sapiens), P07949 [V804M]; test: as §1; conditions: at 10 µM
Chain of Proto-oncogene tyrosine-protein kinase receptor Ret (Homo sapiens), P07949 [V804M] (P07949 whole entry V804M): as the sequence (P07949 whole entry) above, with V804M counted along it

[9] = molecular target: T2, Mitogen-activated protein kinase kinase kinase 7 (Homo sapiens) (UniProt O43318); test: Selectivity interaction (KinomeScan (DiscoverX)) EUB0000695a MAP3K7; conditions: at 100 nM
T2 sequence (whole entry): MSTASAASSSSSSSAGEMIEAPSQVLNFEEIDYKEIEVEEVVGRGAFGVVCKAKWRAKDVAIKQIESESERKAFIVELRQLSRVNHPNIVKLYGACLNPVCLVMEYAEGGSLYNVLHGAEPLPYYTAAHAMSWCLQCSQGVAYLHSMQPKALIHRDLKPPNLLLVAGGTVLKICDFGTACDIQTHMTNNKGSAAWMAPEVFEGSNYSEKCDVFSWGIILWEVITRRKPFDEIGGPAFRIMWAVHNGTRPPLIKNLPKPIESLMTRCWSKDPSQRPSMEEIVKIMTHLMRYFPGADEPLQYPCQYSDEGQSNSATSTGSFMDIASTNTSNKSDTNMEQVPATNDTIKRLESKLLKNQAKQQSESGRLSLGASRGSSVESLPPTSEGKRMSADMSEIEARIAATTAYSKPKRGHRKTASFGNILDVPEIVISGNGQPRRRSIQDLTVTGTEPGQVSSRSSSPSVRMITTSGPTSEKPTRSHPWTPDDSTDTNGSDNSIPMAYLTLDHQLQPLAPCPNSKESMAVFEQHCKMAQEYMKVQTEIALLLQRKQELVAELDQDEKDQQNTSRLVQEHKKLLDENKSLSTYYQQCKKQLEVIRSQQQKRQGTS

[10] = molecular target: T3, G protein-coupled receptor kinase 3 (Homo sapiens) (UniProt P35626); test: Selectivity interaction (SelectScreen profiling (Invitrogen)) EUB0000607a ADRBK2; conditions: at 2 µM
T3 sequence (whole entry): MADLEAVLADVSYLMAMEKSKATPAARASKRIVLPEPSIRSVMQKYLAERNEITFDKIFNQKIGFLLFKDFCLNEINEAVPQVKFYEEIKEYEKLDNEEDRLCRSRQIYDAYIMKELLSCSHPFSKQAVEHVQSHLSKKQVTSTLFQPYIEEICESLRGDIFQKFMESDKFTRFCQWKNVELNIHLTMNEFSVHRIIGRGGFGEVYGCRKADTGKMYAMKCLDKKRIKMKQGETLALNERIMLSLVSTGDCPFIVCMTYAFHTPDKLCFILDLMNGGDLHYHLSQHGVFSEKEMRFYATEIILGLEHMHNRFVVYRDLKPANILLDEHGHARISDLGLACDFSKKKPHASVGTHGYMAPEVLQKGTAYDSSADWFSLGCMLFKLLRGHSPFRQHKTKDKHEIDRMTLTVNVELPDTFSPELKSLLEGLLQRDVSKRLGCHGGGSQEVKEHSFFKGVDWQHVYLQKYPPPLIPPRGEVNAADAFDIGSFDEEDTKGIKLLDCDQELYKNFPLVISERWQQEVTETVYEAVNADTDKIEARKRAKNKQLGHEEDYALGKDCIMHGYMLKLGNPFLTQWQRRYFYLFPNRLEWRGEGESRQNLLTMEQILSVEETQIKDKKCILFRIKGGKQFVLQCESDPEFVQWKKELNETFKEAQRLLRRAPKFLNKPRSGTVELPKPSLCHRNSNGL

Chain of Dual specificity testis-specific protein kinase 1 (Homo sapiens) (Q15569 whole entry, looked up): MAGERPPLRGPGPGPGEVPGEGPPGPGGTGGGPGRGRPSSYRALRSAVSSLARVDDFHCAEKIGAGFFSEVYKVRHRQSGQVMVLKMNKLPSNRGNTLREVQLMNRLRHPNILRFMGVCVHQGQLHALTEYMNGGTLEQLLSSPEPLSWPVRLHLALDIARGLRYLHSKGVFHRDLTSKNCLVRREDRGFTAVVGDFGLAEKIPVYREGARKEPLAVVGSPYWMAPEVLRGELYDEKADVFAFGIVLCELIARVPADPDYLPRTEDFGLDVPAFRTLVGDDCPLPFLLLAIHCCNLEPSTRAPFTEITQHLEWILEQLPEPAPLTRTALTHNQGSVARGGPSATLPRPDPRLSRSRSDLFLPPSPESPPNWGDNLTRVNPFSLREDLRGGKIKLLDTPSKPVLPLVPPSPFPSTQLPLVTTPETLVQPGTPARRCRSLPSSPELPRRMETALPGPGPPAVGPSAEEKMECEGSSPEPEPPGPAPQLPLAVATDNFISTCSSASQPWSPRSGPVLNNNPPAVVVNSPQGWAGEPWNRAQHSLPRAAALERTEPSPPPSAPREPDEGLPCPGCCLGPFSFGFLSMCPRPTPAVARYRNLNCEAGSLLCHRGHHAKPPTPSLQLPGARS

Compound `COc1cc(Nc2nc(C)cc(-c3cnn4nc(OC)ccc34)n2)cc(C(F)(F)F)c1` has a % of control [1] of 73%.

Compound `CC[C@@H]1[C@H](F)C(=O)N[C@@H]1COc1nccc2cc(C(N)=O)c(OC)cc12` [ZIMLOVISERTIB] has a % of inhibition [2] of -4.6%.

In the case of `COCC(=O)NC/C=C/c1ccc2ncnc(Nc3ccc(Oc4ccc(C)nc4)c(C)c3)c2c1` [CP-724714], the % of control [3] is reported as 100%.

With `Cc1cc([C@@H](C)Nc2ccccc2C(=O)O)c2nc(N3CCOCC3)cc(=O)n2c1` [AZD-6482] the % of control [4] was 88%.

With `CN(C)CCOc1ccc(-c2nc(-c3ccncc3)c(-c3ccc4c(c3)CC/C4=N\O)[nH]2)cc1` the % of control [5] was 100%, the % of control [6] was 100% and the % of control [7] was 88%. The % of control [8] was 92%.

In the case of `Cc1cc(F)c(C(=O)Nc2cccc(-c3nncn3C(C)C)n2)cc1-n1cnc(C2CC2)c1`, the % of control [9] is reported as 81%.

`CNC(=O)Nc1ccc(-c2nc(N3CC4CCC(C3)O4)c3cnn(C4CCC5(CC4)OCCO5)c3n2)cc1` gave a % of inhibition [10] of -3%.

Reference: ChEMBL document CHEMBL5465560, “Selectivity Literature for EUbOPEN Chemogenomic Library” (2024)
